Assay results published in the supplement of paper PMC4862054.

Experiments:
Assay in all cases: normalised viability (% of control), CellTiter-Blue; higher = more viable cells (about 100 = DMSO control)
Details in all cases: incubation time: 72 h
CAL-148 [1] = tested on: CAL-148
Protocol: (§1)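 DSRT, CellTiter-Blue viability, 72 h incubation. Signal is normalised to DMSO and benzethonium chloride controls. Value is the normalised response at dose 8.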

CAL-51 [2] = tested on: CAL-51
Protocol: as §1

CAL-85-1 [3] = tested on: CAL-85-1
Protocol: as §1

DU-4475 [4] = tested on: DU-4475
Protocol: as §1

HDQ-P1 [5] = tested on: HDQ-P1
Protocol: as §1

MDA-MB-453 [6] = tested on: MDA-MB-453
Protocol: as §1

BT-474 = tested on: BT-474
Outline: (§2)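 Seeded at 20 µl suspension per well onto compound-loaded 384-well plates, breast cancer cell lines were incubated 72 h. CellTiter-Blue fluorescence at 560/590 nm was then read, with each plate normalised to vehicle (100) and a positive kill control (0). Normalised viability is reported at a single listed concentration of the series.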

BT-549 = tested on: BT-549
Outline: as §2

CAL-120 = tested on: CAL-120
Outline: as §2

CAL-51 [7] = tested on: CAL-51; remark: listed apart in the source
Outline: as §2

DU-4475 [8] = tested on: DU-4475; remark: listed apart in the source
Outline: as §2

HCC1599 = tested on: HCC1599
Outline: as §2

HCC1937 = tested on: HCC1937
Outline: as §2

HDQ-P1 [9] = tested on: HDQ-P1; remark: listed apart in the source
Outline: as §2

Hs578T = tested on: Hs578T
Outline: as §2

MDA-MB-231 = tested on: MDA-MB-231
Outline: as §2

MDA-MB-436 = tested on: MDA-MB-436
Outline: as §2

MDA-MB-453 [10] = tested on: MDA-MB-453; remark: listed apart in the source
Outline: as §2

MDA-MB-468 = tested on: MDA-MB-468
Outline: as §2

MFM-223 = tested on: MFM-223
Outline: as §2

CAL-148 [11] = tested on: CAL-148; remark: listed apart in the source
Protocol: (§3)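 DSRT, CellTiter-Blue viability, 72 h incubation. Signal is normalised to DMSO and benzethonium chloride controls. Value is the normalised response at dose 6.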

CAL-51 [12] = tested on: CAL-51; remark: listed apart in the source
Protocol: as §3

CAL-85-1 [13] = tested on: CAL-85-1; remark: listed apart in the source
Protocol: as §3

DU-4475 [14] = tested on: DU-4475; remark: listed apart in the source
Protocol: as §3

HDQ-P1 [15] = tested on: HDQ-P1; remark: listed apart in the source
Protocol: as §3

MDA-MB-453 [16] = tested on: MDA-MB-453; remark: listed apart in the source
Protocol: as §3

CAL-148 [17] = tested on: CAL-148; remark: listed apart in the source
Protocol: (§4)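 DSRT, CellTiter-Blue viability, 72 h incubation. Signal is normalised to DMSO and benzethonium chloride controls. Value is the normalised response at dose 9.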

CAL-51 [18] = tested on: CAL-51; remark: listed apart in the source
Protocol: as §4

CAL-85-1 [19] = tested on: CAL-85-1; remark: listed apart in the source
Protocol: as §4

DU-4475 [20] = tested on: DU-4475; remark: listed apart in the source
Protocol: as §4

HDQ-P1 [21] = tested on: HDQ-P1; remark: listed apart in the source
Protocol: as §4

MDA-MB-453 [22] = tested on: MDA-MB-453; remark: listed apart in the source
Protocol: as §4

## CN(C)CCN1C(=O)c2cccc3cc(N)cc(c23)C1=O [Amonafide]
CAL-148 [1]; 3000 nM
  normalised viability: 32%
CAL-51 [2]; 3000 nM
  normalised viability: 55.7%
CAL-85-1 [3]; 3000 nM
  normalised viability: 61.9%
DU-4475 [4]; 3000 nM
  normalised viability: 57.9%
HDQ-P1 [5]; 3000 nM
  normalised viability: 79.6%
MDA-MB-453 [6]; 3000 nM
  normalised viability: 68.3%
BT-474; 10 nM
  normalised viability: 114%
BT-549; 10 nM
  normalised viability: 84.9%
CAL-120; 10 nM
  normalised viability: 82%
CAL-51 [7]; 3 nM
  normalised viability: 112%
DU-4475 [8]; 3 nM
  normalised viability: 100%
HCC1599; 10 nM
  normalised viability: 98.2%
HCC1937; 10 nM
  normalised viability: 91.8%
HDQ-P1 [9]; 3 nM
  normalised viability: 98.5%
Hs578T; 10 nM
  normalised viability: 113%
MDA-MB-231; 10 nM
  normalised viability: 97.2%
MDA-MB-436; 10 nM
  normalised viability: 111%
MDA-MB-453 [10]; 3 nM
  normalised viability: 106%
MDA-MB-468; 10 nM
  normalised viability: 105%
MFM-223; 10 nM
  normalised viability: 92.1%
CAL-148 [11]; 300 nM
  normalised viability: 89.8%
CAL-51 [12]; 300 nM
  normalised viability: 109%
CAL-85-1 [13]; 300 nM
  normalised viability: 91.7%
DU-4475 [14]; 300 nM
  normalised viability: 92.3%
HDQ-P1 [15]; 300 nM
  normalised viability: 67.5%
MDA-MB-453 [16]; 300 nM
  normalised viability: 92.5%
CAL-148 [17]; 10000 nM
  normalised viability: 8.2%
CAL-51 [18]; 10000 nM
  normalised viability: 6.12%
CAL-85-1 [19]; 10000 nM
  normalised viability: 27.6%
DU-4475 [20]; 10000 nM
  normalised viability: 1.19%
HDQ-P1 [21]; 10000 nM
  normalised viability: 45.5%
MDA-MB-453 [22]; 10000 nM
  normalised viability: 20.4%

## Cc1cc2c(C(C)C)c(O)c(O)c(C=O)c2c(O)c1-c1c(C)cc2c(C(C)C)c(O)c(O)c(C=O)c2c1O [Gossypol]
CAL-148 [1]; 30000 nM
  normalised viability: 7.03%
CAL-51 [2]; 30000 nM
  normalised viability: 3.25%
CAL-85-1 [3]; 30000 nM
  normalised viability: 5.42%
DU-4475 [4]; 30000 nM
  normalised viability: 4.25%
HDQ-P1 [5]; 30000 nM
  normalised viability: 4.62%
MDA-MB-453 [6]; 30000 nM
  normalised viability: 5.68%
BT-474; 100 nM
  normalised viability: 115%
BT-549; 100 nM
  normalised viability: 114%
CAL-120; 100 nM
  normalised viability: 109%
CAL-51 [7]; 30 nM
  normalised viability: 97.1%
DU-4475 [8]; 30 nM
  normalised viability: 94.1%
HCC1599; 100 nM
  normalised viability: 87.6%
HCC1937; 100 nM
  normalised viability: 116%
HDQ-P1 [9]; 30 nM
  normalised viability: 139%
Hs578T; 100 nM
  normalised viability: 137%
MDA-MB-231; 100 nM
  normalised viability: 94.1%
MDA-MB-436; 100 nM
  normalised viability: 106%
MDA-MB-453 [10]; 30 nM
  normalised viability: 106%
MDA-MB-468; 100 nM
  normalised viability: 101%
MFM-223; 100 nM
  normalised viability: 105%
CAL-148 [11]; 3000 nM
  normalised viability: 114%
CAL-51 [12]; 3000 nM
  normalised viability: 96.6%
CAL-85-1 [13]; 3000 nM
  normalised viability: 80.2%
DU-4475 [14]; 3000 nM
  normalised viability: 49.2%
HDQ-P1 [15]; 3000 nM
  normalised viability: 105%
MDA-MB-453 [16]; 3000 nM
  normalised viability: 62.9%
CAL-148 [17]; 100000 nM
  normalised viability: 3.73%
CAL-51 [18]; 100000 nM
  normalised viability: 2.71%
CAL-85-1 [19]; 100000 nM
  normalised viability: 3.4%
DU-4475 [20]; 100000 nM
  normalised viability: 4.97%
HDQ-P1 [21]; 100000 nM
  normalised viability: 4.15%
MDA-MB-453 [22]; 100000 nM
  normalised viability: 2.75%

## O=C(O)CCCc1ccc(N(CCCl)CCCl)cc1 [Chlorambucil]
CAL-148 [1]; 3000 nM
  normalised viability: 96.7%
CAL-51 [2]; 3000 nM
  normalised viability: 115%
CAL-85-1 [3]; 3000 nM
  normalised viability: 97.7%
DU-4475 [4]; 3000 nM
  normalised viability: 125%
HDQ-P1 [5]; 3000 nM
  normalised viability: 107%
MDA-MB-453 [6]; 3000 nM
  normalised viability: 108%
BT-474; 10 nM
  normalised viability: 120%
BT-549; 10 nM
  normalised viability: 80.9%
CAL-120; 10 nM
  normalised viability: 104%
CAL-51 [7]; 3 nM
  normalised viability: 115%
DU-4475 [8]; 3 nM
  normalised viability: 101%
HCC1599; 10 nM
  normalised viability: 108%
HCC1937; 10 nM
  normalised viability: 51.5%
HDQ-P1 [9]; 3 nM
  normalised viability: 114%
Hs578T; 10 nM
  normalised viability: 111%
MDA-MB-231; 10 nM
  normalised viability: 101%
MDA-MB-436; 10 nM
  normalised viability: 89.7%
MDA-MB-453 [10]; 3 nM
  normalised viability: 131%
MDA-MB-468; 10 nM
  normalised viability: 107%
MFM-223; 10 nM
  normalised viability: 95.5%
CAL-148 [11]; 300 nM
  normalised viability: 110%
CAL-51 [12]; 300 nM
  normalised viability: 104%
CAL-85-1 [13]; 300 nM
  normalised viability: 105%
DU-4475 [14]; 300 nM
  normalised viability: 90.9%
HDQ-P1 [15]; 300 nM
  normalised viability: 85.8%
MDA-MB-453 [16]; 300 nM
  normalised viability: 103%
CAL-148 [17]; 10000 nM
  normalised viability: 89.7%
CAL-51 [18]; 10000 nM
  normalised viability: 96.5%
CAL-85-1 [19]; 10000 nM
  normalised viability: 98%
DU-4475 [20]; 10000 nM
  normalised viability: 90.9%
HDQ-P1 [21]; 10000 nM
  normalised viability: 115%
MDA-MB-453 [22]; 10000 nM
  normalised viability: 65%

## CNNCc1ccc(C(=O)NC(C)C)cc1 [Procarbazine]
CAL-148 [1]; 3000 nM
  normalised viability: 101%
CAL-51 [2]; 3000 nM
  normalised viability: 98.8%
CAL-85-1 [3]; 3000 nM
  normalised viability: 95.7%
DU-4475 [4]; 3000 nM
  normalised viability: 100%
HDQ-P1 [5]; 3000 nM
  normalised viability: 127%
MDA-MB-453 [6]; 3000 nM
  normalised viability: 102%
BT-474; 10 nM
  normalised viability: 106%
BT-549; 10 nM
  normalised viability: 111%
CAL-120; 10 nM
  normalised viability: 104%
CAL-51 [7]; 3 nM
  normalised viability: 107%
DU-4475 [8]; 3 nM
  normalised viability: 90.7%
HCC1599; 10 nM
  normalised viability: 97.4%
HCC1937; 10 nM
  normalised viability: 87%
HDQ-P1 [9]; 3 nM
  normalised viability: 146%
Hs578T; 10 nM
  normalised viability: 105%
MDA-MB-231; 10 nM
  normalised viability: 109%
MDA-MB-436; 10 nM
  normalised viability: 97%
MDA-MB-453 [10]; 3 nM
  normalised viability: 114%
MDA-MB-468; 10 nM
  normalised viability: 105%
MFM-223; 10 nM
  normalised viability: 98.4%
CAL-148 [11]; 300 nM
  normalised viability: 101%
CAL-51 [12]; 300 nM
  normalised viability: 105%
CAL-85-1 [13]; 300 nM
  normalised viability: 100%
DU-4475 [14]; 300 nM
  normalised viability: 83.2%
HDQ-P1 [15]; 300 nM
  normalised viability: 97.5%
MDA-MB-453 [16]; 300 nM
  normalised viability: 101%
CAL-148 [17]; 10000 nM
  normalised viability: 97%
CAL-51 [18]; 10000 nM
  normalised viability: 102%
CAL-85-1 [19]; 10000 nM
  normalised viability: 85.1%
DU-4475 [20]; 10000 nM
  normalised viability: 85%
HDQ-P1 [21]; 10000 nM
  normalised viability: 124%
MDA-MB-453 [22]; 10000 nM
  normalised viability: 110%
